Experimental findings from ChEMBL document CHEMBL4419165, “Fibcd1 for the prevention and treatment of diseases” (2014) are described below.

What is called inhibition is the change of the read-out against control, counted positive when it falls.

The source made the active and inactive calls. The calls are words filed in the database; no cut-off is given here.

Assay [1] addresses T1, Fibrinogen C domain-containing protein 1 (Homo sapiens) (UniProt Q8N539).
T1 sequence (whole entry): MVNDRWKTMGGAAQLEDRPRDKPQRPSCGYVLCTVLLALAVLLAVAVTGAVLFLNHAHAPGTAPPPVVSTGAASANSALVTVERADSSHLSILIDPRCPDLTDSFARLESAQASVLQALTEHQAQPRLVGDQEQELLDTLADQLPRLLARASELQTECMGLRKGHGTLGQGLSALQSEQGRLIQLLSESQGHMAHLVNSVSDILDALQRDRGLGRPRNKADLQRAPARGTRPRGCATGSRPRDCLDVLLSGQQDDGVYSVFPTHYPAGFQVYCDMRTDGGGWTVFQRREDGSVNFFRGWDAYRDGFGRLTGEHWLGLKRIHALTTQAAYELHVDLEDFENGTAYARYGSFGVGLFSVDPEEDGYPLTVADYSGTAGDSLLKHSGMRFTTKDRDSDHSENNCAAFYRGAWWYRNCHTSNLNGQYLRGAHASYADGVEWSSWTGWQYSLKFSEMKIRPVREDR
The assay can be described thus: Binding affinity to V5-His tagged FIBCD1 ecto-domain (54 to 461 residues) (unknown origin) expressed in CHO cells assessed as reduction in endocytosis of [125I]Acetylated BSA by measuring degraded acetylated BSA level measured up to 4 hrs. The assay is classed as cell-based.

Assay [2] deals with T1, Fibrinogen C domain-containing protein 1 (Homo sapiens). Briefly: Binding affinity to V5-His tagged FIBCD1 ecto-domain (54 to 461 residues) (unknown origin) assessed as reduction in binding between FIBCD1 and acetylated BSA at 50 mM by ELISA relative to control. (In general: ELISA stands for enzyme-linked immunosorbent assay.)
Assay [3] has the same target. Briefly: Binding affinity to V5-His tagged FIBCD1 ecto-domain (54 to 461 residues) (unknown origin) expressed in HEK293 cells assessed as reduction in binding between FIBCD1 and acetylated BSA by ELISA. The assay is classed as cell-based.
The target is the same in assay [4]. The assay can be described thus: Binding affinity to V5-His tagged FIBCD1 ecto-domain (54 to 461 residues) (unknown origin) assessed as reduction in binding between FIBCD1 and acetylated BSA by ELISA relative to control.

As to `CCN(CC)CCCC(C)Nc1ccnc2cc(Cl)ccc12` (stereo not given), the result in assay [1] was Active.

Take `OC[C@H]1OC(O)[C@@H](O)[C@@H](O)[C@@H]1O` (stereo not given in full): the inhibition in assay [2] is below 50%. Further, the I50 result in assay [3] is “inactive”.

For `CCCC(=O)O`, in assay [2], the inhibition was below 50%. The I50 entry in assay [3] was “inactive”.

In the case of `OC[C@H]1OC(O)[C@H](O)[C@@H](O)[C@@H]1O` (stereo not given in full), in assay [2], the inhibition was below 50%. In assay [3], the I50 result was “inactive”.

On to `N[C@H]1[C@H]([C@H](O)[C@H](O)CO)OC(O)(C(=O)O)C[C@@H]1O` (stereo not given in full), for which the Ratio in assay [4] amounted to 1.

Turning to `CC(=O)OCC[N+](C)(C)C`, the Ratio in assay [4] came to 0.2.

In the case of `CC(=O)N[C@@H]1[C@@H](O)[C@@H](O)[C@@H](CO)O[C@@H]1O`, in assay [4], the Ratio was 0.4.

On to `O=C[C@H](O)[C@@H](O)[C@@H](O)[C@H](O)CO`, for which the inhibition in assay [2] was below 50%. The I50 result in assay [3] was “inactive”.

With `CCC(=O)O`, the inhibition in assay [2] is below 50%. Also, the I50 entry in assay [3] was “inactive”.

For the molecule `CC(=O)O`, the Ratio in assay [4] amounted to 0.7.
